# US20240366589A1, “NHE3-BINDING COMPOUNDS AND METHODS FOR INHIBITING PHOSPHATE TRANSPORT” (Ardelyx, Inc., priority 2013, published 2024)
# Assays:
# [1] = test system: absorption of sodium from the intestinal lumen; test: Inhibition of intestinal sodium absorption: urinary sodium (uNa) 16 h after single oral dose in rats; assay type: in vivo, rat; details: for UNa (%): urinary Na excretion as % of vehicle
# Summary of the method: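 Urinary sodium mass over the 16 h after one oral gavage dose, measured by cation-exchange ion chromatography, reported as percent of water-vehicle group; ANOVA plus Dunnett's post hoc test. Groups of six 8-week-old Sprague-Dawley rats, housed individually in metabolic cages post-dose, fed and watered freely.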
# [2] = target: T1, Human NHE3 (Homo sapiens, UniProt P48764); test: Cell-based NHE3 activity under prompt conditions (OK cells, BCECF pH recovery), human NHE3; details: for Human NHE3 pIC50 Prompt: Table E5, 001 free base, 002-005 dihydrochloride salt; for pIC50 Prompt: Table E6, NHE3 species not stated
# T1 construct: expressed in transfected cells; host or cells: Opossum kidney (OK) cells (ATCC), electroporation
# T1 sequence (P48764 26-834): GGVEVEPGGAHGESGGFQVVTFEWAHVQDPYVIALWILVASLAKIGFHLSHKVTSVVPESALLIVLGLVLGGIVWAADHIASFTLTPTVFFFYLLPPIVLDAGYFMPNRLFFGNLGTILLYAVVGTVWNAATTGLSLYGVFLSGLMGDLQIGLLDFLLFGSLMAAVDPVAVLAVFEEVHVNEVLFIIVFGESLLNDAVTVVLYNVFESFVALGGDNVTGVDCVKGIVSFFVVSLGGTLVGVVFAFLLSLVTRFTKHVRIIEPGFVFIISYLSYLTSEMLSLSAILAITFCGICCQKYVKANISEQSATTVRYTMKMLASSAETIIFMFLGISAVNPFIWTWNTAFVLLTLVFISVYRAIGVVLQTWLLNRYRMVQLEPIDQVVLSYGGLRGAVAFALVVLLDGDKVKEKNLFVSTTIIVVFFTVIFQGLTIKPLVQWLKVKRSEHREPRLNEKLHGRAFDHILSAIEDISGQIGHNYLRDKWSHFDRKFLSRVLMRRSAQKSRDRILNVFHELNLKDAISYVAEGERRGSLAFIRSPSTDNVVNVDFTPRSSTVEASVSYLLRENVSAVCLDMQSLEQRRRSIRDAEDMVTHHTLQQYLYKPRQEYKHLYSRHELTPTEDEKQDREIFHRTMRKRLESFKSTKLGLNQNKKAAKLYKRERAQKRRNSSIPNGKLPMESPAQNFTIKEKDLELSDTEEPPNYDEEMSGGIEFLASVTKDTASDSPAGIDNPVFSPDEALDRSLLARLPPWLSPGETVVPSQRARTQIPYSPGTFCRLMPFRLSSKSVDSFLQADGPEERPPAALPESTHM
# Summary of the method: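 Read-out: initial rate of BCECF-reported intracellular pH recovery via Na+/H+ antiport, fitted to pIC50. Opossum kidney cells transfected with rat or human NHE3; NH4Cl prepulse with 5 μM BCECF-AM, 30 min RT; Na+-free choline buffer 10 min.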
Structure (SMILES),effect on urinary Na (UNa) ([1]; in words),UNa (%) ([1]; single oral dose 10 mg/kg),Human NHE3 pIC50 Prompt [2],pIC50 Prompt [2],UNa (%) ([1]; single oral dose 1 mg/kg)
CN1Cc2c(Cl)cc(Cl)cc2[C@@H](c2cccc(S(=O)(=O)NCCOCCOCCNC(=O)NCCCCNC(=O)NCCOCCOCCNS(=O)(=O)c3cccc([C@H]4CN(C)Cc5c(Cl)cc(Cl)cc54)c3)c2)C1 [Cpd 004],no significant effect,68 @ 10 mg/kg %,7.3,7.3,–
CN1Cc2c(Cl)cc(Cl)cc2[C@H](c2cccc(S(=O)(=O)NCCOCCOCCNC(=O)NCCCCNC(=O)NCCOCCOCCNS(=O)(=O)c3cccc([C@@H]4CN(C)Cc5c(Cl)cc(Cl)cc54)c3)c2)C1 [Cpd 002],–,–,8,8,11 @ 1 mg/kg %
